Source: article PMC11551917 (RSC Advances, 2024)

Molecular target: Jack-bean urease (Canavalia ensiformis, UniProt P07374)
Assay: indophenol ammonia assay, […] nm
Assay type: biochemical

Jack-bean urease, sequence (P07374 whole entry, looked up): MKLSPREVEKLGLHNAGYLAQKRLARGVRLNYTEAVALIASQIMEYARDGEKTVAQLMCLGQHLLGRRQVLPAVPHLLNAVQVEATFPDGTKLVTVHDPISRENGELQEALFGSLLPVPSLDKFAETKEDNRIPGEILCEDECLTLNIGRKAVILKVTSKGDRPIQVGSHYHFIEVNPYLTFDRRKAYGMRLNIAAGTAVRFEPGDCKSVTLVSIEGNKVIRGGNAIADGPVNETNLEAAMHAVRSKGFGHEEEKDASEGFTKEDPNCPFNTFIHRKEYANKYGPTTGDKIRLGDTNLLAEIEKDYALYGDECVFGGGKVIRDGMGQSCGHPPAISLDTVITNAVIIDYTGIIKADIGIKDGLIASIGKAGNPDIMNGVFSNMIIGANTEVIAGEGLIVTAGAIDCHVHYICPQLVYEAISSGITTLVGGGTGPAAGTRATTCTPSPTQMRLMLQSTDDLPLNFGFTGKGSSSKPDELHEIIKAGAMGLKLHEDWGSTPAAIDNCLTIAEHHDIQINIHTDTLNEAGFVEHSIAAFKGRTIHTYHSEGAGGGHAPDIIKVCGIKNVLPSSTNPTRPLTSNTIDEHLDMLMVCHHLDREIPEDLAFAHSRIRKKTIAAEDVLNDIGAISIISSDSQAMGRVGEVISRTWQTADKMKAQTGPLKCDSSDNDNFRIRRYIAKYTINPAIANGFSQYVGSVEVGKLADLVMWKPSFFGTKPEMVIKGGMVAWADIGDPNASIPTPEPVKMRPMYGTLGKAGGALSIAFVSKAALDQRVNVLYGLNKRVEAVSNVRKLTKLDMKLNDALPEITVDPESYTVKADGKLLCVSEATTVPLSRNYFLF

IC50 [µM] | SMILES
31.4 ± 0.48 | Nc1cccc(C(=O)O)c1 [3-ABA]
24.5 ± 0.47 | NC(N)=S [Thiourea]
